From ChEMBL document CHEMBL4028801, “A multifactorial approach to hepatobiliary transporter assessment enables improved therapeutic compound development” (Toxicol Sci, 2013)
Structures can show the parent of a compound that is named as a salt.

Tests used:
Bile salt export pump = Bile salt export pump (Homo sapiens, UniProt O95342); assay: Inhibition of human BSEP overexpressed in Sf9 cell membrane vesicles assessed as uptake of [3H]-taurocholate in presence of ATP measured after 15 to 20 mins by membrane vesicle transport assay; type: ADME, cell-based
Chain of Bile salt export pump (O95342 whole entry): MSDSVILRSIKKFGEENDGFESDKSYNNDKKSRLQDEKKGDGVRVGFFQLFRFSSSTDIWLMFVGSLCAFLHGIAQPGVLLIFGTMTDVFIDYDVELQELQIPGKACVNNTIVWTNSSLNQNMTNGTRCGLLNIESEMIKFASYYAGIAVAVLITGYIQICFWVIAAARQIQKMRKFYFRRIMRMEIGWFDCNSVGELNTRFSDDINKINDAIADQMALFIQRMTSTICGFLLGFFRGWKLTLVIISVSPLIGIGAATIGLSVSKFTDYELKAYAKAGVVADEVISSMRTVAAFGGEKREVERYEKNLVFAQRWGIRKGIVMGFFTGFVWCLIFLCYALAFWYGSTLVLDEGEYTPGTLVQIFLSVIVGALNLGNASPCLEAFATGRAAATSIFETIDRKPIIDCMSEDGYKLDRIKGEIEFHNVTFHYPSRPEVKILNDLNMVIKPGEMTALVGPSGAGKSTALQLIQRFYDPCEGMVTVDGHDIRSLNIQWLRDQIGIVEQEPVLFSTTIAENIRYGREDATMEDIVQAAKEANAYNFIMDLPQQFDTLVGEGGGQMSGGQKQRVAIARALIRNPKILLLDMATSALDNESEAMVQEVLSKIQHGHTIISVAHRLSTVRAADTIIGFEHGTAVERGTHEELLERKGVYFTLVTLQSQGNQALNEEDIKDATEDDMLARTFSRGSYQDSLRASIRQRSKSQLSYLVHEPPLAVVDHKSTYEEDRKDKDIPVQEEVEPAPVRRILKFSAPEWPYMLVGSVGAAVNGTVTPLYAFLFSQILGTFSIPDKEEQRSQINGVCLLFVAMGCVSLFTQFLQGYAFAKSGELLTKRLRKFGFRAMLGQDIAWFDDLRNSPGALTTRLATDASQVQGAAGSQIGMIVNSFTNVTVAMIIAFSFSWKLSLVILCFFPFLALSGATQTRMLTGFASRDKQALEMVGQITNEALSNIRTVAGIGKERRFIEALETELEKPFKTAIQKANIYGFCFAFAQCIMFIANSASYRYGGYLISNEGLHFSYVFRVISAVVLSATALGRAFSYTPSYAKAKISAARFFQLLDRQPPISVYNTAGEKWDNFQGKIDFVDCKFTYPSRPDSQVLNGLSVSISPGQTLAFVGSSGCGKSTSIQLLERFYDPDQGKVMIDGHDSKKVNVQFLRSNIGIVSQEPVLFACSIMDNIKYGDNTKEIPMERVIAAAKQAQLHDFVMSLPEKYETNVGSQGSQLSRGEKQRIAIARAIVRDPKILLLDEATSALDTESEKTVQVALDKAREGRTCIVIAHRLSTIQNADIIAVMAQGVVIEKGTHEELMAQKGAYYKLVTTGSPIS

[1] = biological target: ATP-binding cassette sub-family C member 2 (Homo sapiens, UniProt Q92887); assay: Inhibition of human MRP2 overexpressed in Sf9 cell membrane vesicles assessed as uptake of [3H]-estradiol-17beta-D-glucuronide in presence of ATP and GSH measured after 20 mins by membrane vesicle transport assay
Chain of ATP-binding cassette sub-family C member 2 (Q92887 whole entry): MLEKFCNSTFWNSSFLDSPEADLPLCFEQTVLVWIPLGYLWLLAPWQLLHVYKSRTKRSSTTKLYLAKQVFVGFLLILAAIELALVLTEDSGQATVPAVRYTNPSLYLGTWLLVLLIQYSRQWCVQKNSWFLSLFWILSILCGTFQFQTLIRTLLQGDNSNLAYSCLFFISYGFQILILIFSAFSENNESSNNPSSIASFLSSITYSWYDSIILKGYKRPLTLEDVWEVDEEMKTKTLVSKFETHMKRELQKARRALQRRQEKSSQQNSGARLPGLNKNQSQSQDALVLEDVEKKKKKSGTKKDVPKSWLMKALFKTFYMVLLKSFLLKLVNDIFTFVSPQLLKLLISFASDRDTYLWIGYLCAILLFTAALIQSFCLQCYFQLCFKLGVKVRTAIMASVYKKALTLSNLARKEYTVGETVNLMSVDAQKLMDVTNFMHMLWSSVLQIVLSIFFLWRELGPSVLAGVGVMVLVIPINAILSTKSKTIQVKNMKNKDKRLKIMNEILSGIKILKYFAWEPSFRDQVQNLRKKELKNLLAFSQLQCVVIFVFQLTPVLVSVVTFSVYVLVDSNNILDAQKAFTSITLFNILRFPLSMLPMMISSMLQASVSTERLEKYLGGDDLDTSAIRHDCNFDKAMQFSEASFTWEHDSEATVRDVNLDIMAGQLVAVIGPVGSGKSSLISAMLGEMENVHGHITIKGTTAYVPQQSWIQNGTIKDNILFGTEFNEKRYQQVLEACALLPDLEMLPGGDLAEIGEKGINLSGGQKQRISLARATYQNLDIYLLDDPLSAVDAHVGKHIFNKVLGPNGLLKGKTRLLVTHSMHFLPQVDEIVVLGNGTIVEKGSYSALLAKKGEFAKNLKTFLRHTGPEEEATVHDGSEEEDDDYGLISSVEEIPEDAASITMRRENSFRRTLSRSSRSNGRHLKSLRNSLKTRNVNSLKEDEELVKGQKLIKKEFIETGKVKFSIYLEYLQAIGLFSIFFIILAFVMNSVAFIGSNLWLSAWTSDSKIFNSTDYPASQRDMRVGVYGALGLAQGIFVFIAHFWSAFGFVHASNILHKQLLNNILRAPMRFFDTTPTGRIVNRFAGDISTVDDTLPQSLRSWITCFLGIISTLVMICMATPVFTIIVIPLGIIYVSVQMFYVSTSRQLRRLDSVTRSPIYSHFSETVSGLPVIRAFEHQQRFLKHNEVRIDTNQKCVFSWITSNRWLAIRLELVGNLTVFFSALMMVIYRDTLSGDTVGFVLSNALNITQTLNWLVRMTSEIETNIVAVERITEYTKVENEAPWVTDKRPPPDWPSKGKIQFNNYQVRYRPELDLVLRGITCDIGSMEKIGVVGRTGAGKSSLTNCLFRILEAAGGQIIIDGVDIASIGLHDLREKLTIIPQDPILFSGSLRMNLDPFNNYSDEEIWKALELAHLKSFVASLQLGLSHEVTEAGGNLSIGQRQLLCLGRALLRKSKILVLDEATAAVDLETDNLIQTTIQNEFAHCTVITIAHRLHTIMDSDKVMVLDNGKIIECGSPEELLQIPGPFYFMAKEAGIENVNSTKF

[2] = biological target: ATP-binding cassette sub-family C member 3 (Homo sapiens, UniProt O15438); assay: Inhibition of human MRP3 overexpressed in Sf9 insect cell membrane vesicles assessed as uptake of [3H]-estradiol-17beta-D-glucuronide in presence of ATP and GSH measured after 10 mins by membrane vesicle transport assay; type: ADME, cell-based
Chain of ATP-binding cassette sub-family C member 3 (O15438 whole entry): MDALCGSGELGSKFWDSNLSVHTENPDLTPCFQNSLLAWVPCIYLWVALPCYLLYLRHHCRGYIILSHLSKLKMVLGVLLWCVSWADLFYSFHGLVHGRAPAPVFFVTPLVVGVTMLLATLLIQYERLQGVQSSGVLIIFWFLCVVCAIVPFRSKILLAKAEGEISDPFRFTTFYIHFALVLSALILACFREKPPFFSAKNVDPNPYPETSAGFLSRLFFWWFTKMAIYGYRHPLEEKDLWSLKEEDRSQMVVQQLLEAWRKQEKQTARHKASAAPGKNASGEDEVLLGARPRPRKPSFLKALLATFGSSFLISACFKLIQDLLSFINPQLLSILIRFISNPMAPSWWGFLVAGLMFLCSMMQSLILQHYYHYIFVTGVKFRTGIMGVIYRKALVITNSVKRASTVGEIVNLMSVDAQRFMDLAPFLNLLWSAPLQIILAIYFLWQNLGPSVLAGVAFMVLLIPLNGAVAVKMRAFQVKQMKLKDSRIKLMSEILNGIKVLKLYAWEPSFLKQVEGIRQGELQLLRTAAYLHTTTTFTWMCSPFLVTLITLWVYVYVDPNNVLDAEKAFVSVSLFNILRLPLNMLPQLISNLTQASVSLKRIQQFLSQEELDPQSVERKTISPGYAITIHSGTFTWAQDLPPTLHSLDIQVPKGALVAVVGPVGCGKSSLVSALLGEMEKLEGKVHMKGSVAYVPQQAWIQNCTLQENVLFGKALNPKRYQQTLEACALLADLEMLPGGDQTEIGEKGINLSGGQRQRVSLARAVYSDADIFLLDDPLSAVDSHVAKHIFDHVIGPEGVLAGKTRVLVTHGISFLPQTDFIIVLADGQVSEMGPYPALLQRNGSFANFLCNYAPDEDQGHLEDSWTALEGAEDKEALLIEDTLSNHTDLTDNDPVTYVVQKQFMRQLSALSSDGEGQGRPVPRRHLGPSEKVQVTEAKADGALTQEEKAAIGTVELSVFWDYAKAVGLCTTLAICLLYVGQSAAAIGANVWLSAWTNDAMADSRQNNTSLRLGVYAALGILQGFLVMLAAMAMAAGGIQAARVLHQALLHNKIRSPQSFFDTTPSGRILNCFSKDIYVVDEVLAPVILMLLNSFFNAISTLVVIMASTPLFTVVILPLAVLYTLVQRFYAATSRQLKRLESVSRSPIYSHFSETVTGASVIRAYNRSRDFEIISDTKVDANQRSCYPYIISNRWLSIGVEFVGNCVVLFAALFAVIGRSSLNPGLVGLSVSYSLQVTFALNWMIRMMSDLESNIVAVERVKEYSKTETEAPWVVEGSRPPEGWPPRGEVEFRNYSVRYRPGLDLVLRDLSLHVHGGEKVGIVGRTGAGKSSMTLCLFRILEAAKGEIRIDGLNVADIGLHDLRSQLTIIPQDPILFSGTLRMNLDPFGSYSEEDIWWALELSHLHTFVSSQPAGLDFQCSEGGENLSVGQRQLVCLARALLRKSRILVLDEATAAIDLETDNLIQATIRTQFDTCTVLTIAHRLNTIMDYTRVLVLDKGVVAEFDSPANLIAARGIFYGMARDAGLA

[3] = biological target: T1, ATP-binding cassette sub-family C member 4 (Homo sapiens, UniProt O15439); assay: Inhibition of human MRP4 overexpressed in Sf9 cell membrane vesicles assessed as uptake of [3H]-estradiol-17beta-D-glucuronide in presence of ATP and GSH measured after 20 mins by membrane vesicle transport assay; type: ADME, cell-based
T1 sequence (O15439 whole entry): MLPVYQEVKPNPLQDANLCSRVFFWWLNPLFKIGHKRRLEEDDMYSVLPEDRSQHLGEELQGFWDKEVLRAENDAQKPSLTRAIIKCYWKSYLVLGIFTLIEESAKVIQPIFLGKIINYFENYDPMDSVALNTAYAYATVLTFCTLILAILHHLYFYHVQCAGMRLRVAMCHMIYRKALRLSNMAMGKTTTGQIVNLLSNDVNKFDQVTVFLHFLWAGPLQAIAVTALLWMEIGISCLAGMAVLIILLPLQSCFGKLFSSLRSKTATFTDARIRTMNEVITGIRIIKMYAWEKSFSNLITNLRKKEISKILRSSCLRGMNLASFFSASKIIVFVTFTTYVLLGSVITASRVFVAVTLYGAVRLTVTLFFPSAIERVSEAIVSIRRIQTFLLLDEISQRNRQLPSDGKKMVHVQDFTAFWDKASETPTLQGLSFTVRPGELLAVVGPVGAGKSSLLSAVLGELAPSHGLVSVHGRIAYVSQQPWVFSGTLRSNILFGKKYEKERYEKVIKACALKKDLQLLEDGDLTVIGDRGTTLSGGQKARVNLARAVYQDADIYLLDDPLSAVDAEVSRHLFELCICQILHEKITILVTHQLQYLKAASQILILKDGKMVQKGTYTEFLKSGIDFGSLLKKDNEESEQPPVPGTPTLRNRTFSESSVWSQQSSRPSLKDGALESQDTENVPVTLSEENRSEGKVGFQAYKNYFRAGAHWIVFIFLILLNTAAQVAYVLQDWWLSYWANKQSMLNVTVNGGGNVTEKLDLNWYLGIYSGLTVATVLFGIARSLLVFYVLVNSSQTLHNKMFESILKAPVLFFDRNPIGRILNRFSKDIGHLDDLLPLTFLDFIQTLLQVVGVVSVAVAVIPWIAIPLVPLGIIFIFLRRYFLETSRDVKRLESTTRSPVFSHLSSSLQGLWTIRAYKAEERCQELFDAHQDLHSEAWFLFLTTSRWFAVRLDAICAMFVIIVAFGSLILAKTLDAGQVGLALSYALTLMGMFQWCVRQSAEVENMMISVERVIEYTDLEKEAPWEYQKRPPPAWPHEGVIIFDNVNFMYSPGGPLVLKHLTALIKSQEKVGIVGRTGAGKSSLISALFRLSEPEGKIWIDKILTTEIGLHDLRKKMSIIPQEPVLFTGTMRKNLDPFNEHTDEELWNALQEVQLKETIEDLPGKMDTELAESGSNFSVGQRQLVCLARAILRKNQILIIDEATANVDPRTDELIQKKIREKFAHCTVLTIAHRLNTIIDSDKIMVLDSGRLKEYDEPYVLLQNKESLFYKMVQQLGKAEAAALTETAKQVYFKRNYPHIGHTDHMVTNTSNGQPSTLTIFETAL

| Compound | IC50 (Bile salt export pump) [µM] | IC50 [1] [µM] | IC50 [2] [µM] | IC50 [3] [µM] |
| --- | --- | --- | --- | --- |
| CN(Cc1cnc2nc(N)nc(N)c2n1)c1ccc(C(=O)N[C@@H](CCC(=O)O)C(=O)O)cc1 [METHOTREXATE] | > 133 | > 133 | > 133 | > 133 |
| C[C@H]1C[C@@H]2[C@H]([C@@H](O)C[C@@]3(C)[C@H]2CC[C@]3(O)C(=O)CO)[C@@]2(C)C=CC(=O)C=C12 [METHYLPREDNISOLONE] | > 133 | > 133 | > 133 | 41 |
| CCN(CC)CCNC(=O)c1cc(Cl)c(N)cc1OC [METOCLOPRAMIDE] | > 133 | > 133 | > 133 | > 133 |
| COc1ccc2cc1Oc1cc3c(cc1OC)CC[N+](C)(C)[C@H]3Cc1ccc(cc1)Oc1c(OC)c(OC)cc3c1[C@@H](C2)[N+](C)(C)CC3 [METOCURINE] | > 133 | > 133 | > 133 | > 133 |
| CC[C@H](C)C(=O)O[C@H]1CCC=C2C=C[C@H](C)[C@H](CC[C@@H]3C[C@@H](O)CC(=O)O3)[C@H]21 [MEVASTATIN] | 27 | > 133 | > 133 | > 133 |
| Cc1cccc(C)c1OCC(C)N (configuration not stated) [MEXILETINE] | > 133 | > 133 | > 133 | > 133 |
| Clc1ccc(COC(Cn2ccnc2)c2ccc(Cl)cc2Cl)c(Cl)c1 (configuration not stated) [MICONAZOLE NITRATE] | 114 | > 133 | > 133 | > 133 |
| CCC(=O)O[C@@H]1CC(=O)O[C@H](C)C/C=C/C=C/[C@H](O)[C@H](C)C[C@H](CC=O)[C@H](O[C@@H]2O[C@H](C)[C@@H](O[C@H]3C[C@@](C)(O)[C@@H](OC(=O)CC)[C@H](C)O3)[C@H](N(C)C)[C@H]2O)[C@H]1OC [MIDECAMYCIN] | 14.3 | > 133 | > 133 | > 133 |
| OCCN1C[C@H](O)[C@@H](O)[C@H](O)[C@H]1CO [MIGLITOL] | > 133 | > 133 | > 133 | > 133 |
| CN(C)c1ccc(O)c2c1C[C@H]1C[C@H]3[C@H](N(C)C)C(O)=C(C(N)=O)C(=O)[C@@]3(O)C(O)=C1C2=O [MINOCYCLINE HYDROCHLORIDE] | > 133 | > 133 | > 133 | > 133 |
| NC(=O)c1ncn([C@@H]2O[C@H](CO)[C@@H](O)[C@H]2O)c1O [MIZORIBINE] | > 133 | > 133 | > 133 | > 133 |
| O=C(NCCN1CCOCC1)c1ccc(Cl)cc1 [MOCLOBEMIDE] | > 133 | > 133 | > 133 | > 133 |
| CCOC(=O)[N-]c1cn(N2CCOCC2)n[o+]1 [MOLSIDOMINE] | > 133 | > 133 | > 133 | > 133 |
| COc1c(N2C[C@@H]3CCCN[C@@H]3C2)c(F)cc2c(=O)c(C(=O)O)cn(C3CC3)c12 [MOXIFLOXACIN HYDROCHLORIDE] | > 133 | > 133 | > 133 | > 133 |
| C/C(=C\C(=O)OCCCCCCCCC(=O)O)C[C@@H]1OC[C@H](C[C@@H]2O[C@H]2[C@@H](C)[C@H](C)O)[C@@H](O)[C@H]1O [MUPIROCIN] | > 133 | > 133 | > 133 | > 133 |
| CC(C)(C)NCC(O)COc1cccc2c1CC(O)C(O)C2 (configuration not stated) [NADOLOL] | > 133 | > 133 | > 133 | > 133 |
| CCn1cc(C(=O)O)c(=O)c2ccc(C)nc21 [NALIDIXIC ACID] | > 133 | > 133 | > 133 | 57.5 |
| C=CCN1CC[C@]23c4c5ccc(O)c4O[C@H]2C(=O)CC[C@@]3(O)[C@H]1C5 [NALOXONE] | > 133 | > 133 | > 133 | > 133 |
| COc1ccc2cc([C@H](C)C(=O)O)ccc2c1 [NAPROXEN] | > 133 | > 133 | > 133 | > 133 |

| Compound | IC50 (Bile salt export pump) [µM] | IC50 [1] [µM] | IC50 [2] [µM] | IC50 [3] [µM] |
| --- | --- | --- | --- | --- |
| C[C@@H]1C/C=C/C=C/C=C/C=C/[C@H](O[C@@H]2O[C@H](C)[C@@H](O)[C@H](N)[C@@H]2O)C[C@@H]2O[C@](O)(C[C@@H](O)C[C@H]3O[C@@H]3/C=C/C(=O)O1)C[C@H](O)[C@H]2C(=O)O [NATAMYCIN] | > 133 | > 133 | > 133 | > 133 |
| CC(C)[C@H]1CC[C@H](C(=O)N[C@H](Cc2ccccc2)C(=O)O)CC1 [NATEGLINIDE] | > 133 | > 133 | 104 | > 133 |
| OC(CNCC(O)C1CCc2cc(F)ccc2O1)C1CCc2cc(F)ccc2O1 (configuration not stated) [NEBIVOLOL HYDROCHLORIDE] | > 133 | > 133 | > 133 | > 133 |
| CN1CCOC(c2ccccc2)c2ccccc2C1 (configuration not stated) [NEFOPAM] | > 133 | > 133 | > 133 | > 133 |
| COc1nc(N)nc2c1ncn2[C@@H]1O[C@H](CO)[C@@H](O)[C@@H]1O [NELARABINE] | > 133 | > 133 | > 133 | > 133 |
| CN(C)C(=O)Oc1cccc([N+](C)(C)C)c1 [NEOSTIGMINE] | > 133 | > 133 | > 133 | > 133 |
| CCOc1cc2ncc(C#N)c(Nc3ccc(OCc4ccccn4)c(Cl)c3)c2cc1NC(=O)/C=C/CN(C)C [NERATINIB] | 25 | > 133 | > 133 | 23 |
| Cc1ccnc2c1NC(=O)c1cccnc1N2C1CC1 [NEVIRAPINE] | > 133 | > 133 | > 133 | > 133 |
| O=C(NCCO[N+](=O)[O-])c1cccnc1 [NICORANDIL] | > 133 | > 133 | > 133 | > 133 |
| CN1CCC[C@H]1c1cccnc1 [NICOTINE] | > 133 | > 133 | > 133 | > 133 |
| CCN(CC)C(=O)c1cccnc1 [NIKETHAMIDE] | > 133 | > 133 | > 133 | > 133 |
| CS(=O)(=O)Nc1ccc([N+](=O)[O-])cc1Oc1ccccc1 [NIMESULIDE] | > 133 | > 133 | > 133 | > 133 |
| CC(=O)Oc1ccccc1C(=O)Nc1ncc([N+](=O)[O-])s1 [NITAZOXANIDE] | > 133 | > 133 | > 133 | > 133 |
| O=C1CN=C(c2ccccc2)c2cc([N+](=O)[O-])ccc2N1 [NITRAZEPAM] | > 133 | > 133 | > 133 | > 133 |
| CNCCC=C1c2ccccc2CCc2ccccc21 [NORTRIPTYLINE] | > 133 | > 133 | > 133 | > 133 |
| CC1COc2c(N3CCN(C)CC3)c(F)cc3c(=O)c(C(=O)O)cn1c23 (configuration not stated) [OFLOXACIN] | > 133 | > 133 | > 133 | > 133 |
| Cc1cc2c(s1)Nc1ccccc1N=C2N1CCN(C)CC1 [OLANZAPINE] | > 133 | > 133 | > 133 | > 133 |
| Cc1nccn1CC1CCc2c(c3ccccc3n2C)C1=O (configuration not stated) [ONDANSETRON] | > 133 | > 133 | > 133 | > 133 |
| CCCCCCCCCCC[C@@H](C[C@@H]1OC(=O)[C@H]1CCCCCC)OC(=O)[C@H](CC(C)C)NC=O [ORLISTAT] | > 133 | > 133 | > 133 | > 133 |
